# In PMC11311842, “Radiosynthesis and Preclinical Evaluation of ^18F-Labeled Estradiol Derivatives with Different Lipophilicity for PET Imaging of Breast Cancer” (Cancers, 2024):
# Assays:
# [1] = Determination of logD7.4 (n-octanol/PBS); format: physicochemical; settings: n-octanol/PBS pH 7.4; mean ± SD, three independent experiments
# Method: For the determination of the octanol–water coefficient, an aliquot of the radiotracer was added to PBS (500 µL, pH 7.4) and n-octanol (500 µL) in an Eppendorf tube. The mixture was vortexed and subsequently centrifuged, each for 1 min. Three samples (each 100 µL) were taken from both the PBS and the n-octanol layer and measured using a γ-counter (Wallac Wizard, PerkinElmer, Waltham, MA, USA). The logD7.4 was expressed as log(cpmoctanol/cpmPBS) and reported as mean ± SD. The determination of logD7.4 was performed in three independent experiments, each performed in triplicate.
# [2] = Stability in human serum and plasma in vitro (radio-HPLC); format: in vitro ADME; settings: 37 °C
# Method: An aliquot of the formulated tracer solution (40 µL containing approx. 10 MBq in 0.9% NaCl) was incubated with 200 µL of human plasma (Hölzel Diagnostika Handels GmbH, from CosmoBio USA, Carlsbad, CA, USA) or human serum (Biochrom GmbH, Merck KGaA, Darmstadt, Germany), respectively, at 37 °C. After various time points (5–120 min), aliquots (30 µL) were taken and quenched in methanol or 10% TFA (30 µL). The samples were centrifuged for 3 min, and subsequently the supernatants were analyzed by radio-HPLC (Chromolith RP-18e, 100 × 4.6 mm, 10–100% acetonitrile (with 0.1% TFA) in water (with 0.1% TFA) over 5 min, 4 mL/min).
# [3] = Plasma protein binding (MicroSpin G-50 columns); format: in vitro ADME; settings: human plasma, 10 min, 37 °C
# Method: MicroSPin G-50 columns (Cytiva, Merck KGaA, Darmstadt, Germany) were preconditioned according to the manufacturer’s protocol and the experiment was performed as follows. In brief, an aliquot of the tracer (1 µL, approx. 250 kBq) was added to NaCl (0.9%, 200 µL, negative control) or human plasma (200 µL) and incubated for 10 min at 37 °C. A sample from the plasma or negative control (40 µL) was carefully added to the resin, and the column was placed in an Eppendorf tube. After centrifugation (2 min, 2000× g), the eluate and the resin were collected separately. Both were measured for radioactivity using a γ-counter (Wallac Wizard, PerkinElmer, Waltham, MA, USA), and the radioactivity eluted from the resin was calculated as a percentage of the total amount of radioactivity. The determination of plasma protein binding was performed twice in duplicate.
# MCF-7 cells = assay: Stability in cells (radio-HPLC of cell lysate); format: in vitro ADME, human; settings: 90 min incubation, 37 °C, absence of serum
# Method: ^18F-TA-Glyco-EE was incubated for 90 min at 37 °C with MCF-7 cells (350,000 cells/well, seeded one day prior to the experiment in 24-well plates) in cell culture medium. After washing twice with ice-cold PBS, the cells were scraped off, and 200 µL PBS was added for resuspension. The cell suspension was transferred to Eppendorf tubes, homogenized using ultrasound (Bandelin sonoplus HD2070 ultrasonic homogenizer, room temperature, BANDELIN electronic GmbH, Berlin, Germany) and then centrifuged. The supernatant was quenched in 10% TFA, and after centrifugation the resulting supernatant was analyzed by radio-HPLC (Chromolith RP-18e, 100 × 4.6 mm, 10–100% acetonitrile (containing 0.1% TFA) in water (containing 0.1% TFA) over 5 min, 4 mL/min).
# ER+ MCF-7 tumor slices = assay: In vitro autoradiography of MCF-7 tumor slices; format: binding, human; settings: 60 min, room temperature, with or without E2 (72 µM)
# Method: (§1) MCF-7, MDA-MB231 and T47D tumors grown in nude mice were collected and frozen in a hexane/dry ice bath (−70 °C). Tumor slices (14 µm) were prepared on a cryostat microtome HM 500 O (Microm, Walldorf, Germany), thaw-mounted on HistoBond® adhesive glass slides (Marienfeld, Lauda-Königshofen, Germany) and stored at −80 °C. For in vitro autoradiography studies, the tumor tissue sections were thawed and pre-incubated in incubation buffer (50 mM Tris HCl, 5 mM MgCl2, 0.2% bovine serum albumin (BSA), pH 7.4) at room temperature for 15 min. Then, the sections were transferred to incubation buffer containing ^18F-TA-Glyco-EE (3–5 MBq) in a total volume of 70 mL. For the determination of non-specific binding, separate sections were incubated with ^18F-TA-Glyco-EE in the presence of E2 (72 µM). After an incubation time of 60 min, the sections were washed three times with incubation buffer, followed by a short dip in ice-cold distilled water. The slices were carefully dried in a stream of warm air and finally placed on a phosphor imager screen (Fuji Imaging Plate BAS-IP SR 2025 E) overnight prior to readout (30 µm resolution) using the HD-CR-35 Bio scanner (Elysia-Raytest, Straubenhardt, Germany). […] Regions of interest were analyzed from 3–4 tumor slices from the MCF-7, MDA-MB231 and T47D tumors, and mean values of the intensity per area were calculated.
# ER+ T47D tumor slices = assay: In vitro autoradiography of T47D tumor slices; format: binding, human; settings: 60 min, room temperature, with or without E2 (72 µM)
# Method: as §1
smiles,measurement,setting,value
CC(=O)OC1C(C[18F])OC(n2cc(C3(O)CCC4C5CCc6cc(O)ccc6C5CCC43C)nn2)C(OC(C)=O)C1OC(C)=O (stereo not shown) [^18F-TA-Glyco-EE],logD7.4,[1],2.3 ± 0.1
same,Stability in human serum and plasma (in words),"[2]; over 120 min, radio-HPLC",rapidly deacetylated in serum and plasma
same,Stability in Human Serum or Plasma,"[2]; after 30 min, same for serum and plasma, deacetylation observed","0% after 30 min ^2,5"
same,Plasma Protein Binding,[3],79 ± 1%
same,"Stability in MCF-7 cells (intracellular radioactivity, HPLC)",MCF-7 cells,without any significant deacetylation
same,Binding to MCF-7 tumor sections (autoradiography),ER+ MCF-7 tumor slices,high specific binding
same,Binding to T47D tumor sections (autoradiography),ER+ T47D tumor slices,high specific binding
